Test results published in US20240182470A1, “KRASG12C MUTANT PROTEIN INHIBITOR, PREARATION AND USE THEREOF” (YA THERAPEUTICS INC, priority 2021, published 2024).

System: H358 (KRAS G12C mutant) cells
Test: Tumor cell proliferation inhibition assay (Cell Titer-Glo, 72 h)
Type: cell-based
Conditions: inhibition of tumor cell proliferation, 72 hours with compound, 10% fetal bovine serum; read-out: NCI-H538 IC50(nm)
Procedure: The H358 (KRAS G^12C mutant) cells were digested, centrifuged and resuspended, and the cell density was measured with a Scepter automatic cell counter. The cells were diluted to a solution containing 44,000 cells per milliliter, and the density-adjusted cell solution was 90 microliters per well. into a 96-well culture plate. The 96-well plate was placed in a 37° C., 5% CO2 incubator. After the cells were cultured for 24 hours, different concentrations of the compounds to be tested were added. The cells were incubated with the compounds for 72 hours in the presence of 10% fetal bovine serum. Glo Luminescent Cell Viability Assay Kit (see manufacturer's instructions for details) was used to measure ATP content to assess cell growth inhibition. Briefly, 30 μl of Cell Titer-Glo reagent was added to each well, and the plate was shaken for 10 minutes to induce cell lysis. Fluoroskan
Ascent FL (Thermo) assay was used to record the fluorescent signal, and the maximum signal value was obtained from cells treated with dimethyl sulfoxide for 72 hours. The minimum signal value was obtained from the medium alone (the number of cells was zero), and the % inhibition rate=(the maximum signal value compound signal value)/(the maximum signal value—the minimum signal value×100%, and the data were processed using Graphpadprism 5 software. By sigmoid Dose-response curve fitting to calculate the IC50 value. “A” means IC50≤50 nM; “B” means 50<IC50≤500 nM; “C” means 500<IC50≤2000 nM; “D” means 2000 nM<IC50

6-Chloro-7-(8-fluoronaphthyl)-8-fluoro-4-(((S)-4-acryloyl-3-carbonitrileethylpiperazine)-2-(((S)-2,2- difluorotetrahydro-1H-pyrincyclo-7a(5H)-yl)methoxy)quinazoline [Compound 75]
IC50: ≤ 50 nM

C=CC(=O)N1CCN(c2nc(OC[C@@]34CCCN3CC(F)(F)C4)nc3c(F)c(-c4cc(O)cc5cccc(F)c45)ccc23)[C@H](C)C1 [Compound 60, 7-(3-Hydroxy-8-fluoronaphthyl)-8-fluoro-4-(((R)-4-acryloyl-2-methylpiperazine)-1-yl)-2-(((S)-2,2-difluorotetrahydro-1H-pyrinyl-7a(5H)-yl)methoxy)quinazoline]
IC50: ≤ 50 nM

7-(8-Methylnaphthyl)-6-fluoro-4-(((S)-4-(2-fluoroacryloyl)-3-carbonitrileethylpiperazine)-1-yl)-2-(((2R,7aS)-2-fluorotetrahydro-1H-pyrinyl-7a(5H)-yl)methoxy)pyridine[2,3-d]lopyrimidine [Compound 82]
IC50: ≤ 50 nM

C=C(F)C(=O)N1CCN(c2nc(OC[C@@]34CCCN3CC(F)(F)C4)nc3nc(-c4cccc5cccc(F)c45)ccc23)C[C@@H]1CC#N [Compound 90, 7-(8-Fluoronaphthyl)-4-(((S)-4-(2-fluoroacryloyl)-3-carbonitrileethylpiperazine)-1-yl)-2-(((S)-2,2-difluorotetrahydro-1H-pyrincyclo-7a(5H)-yl)methoxy)pyridine[2,3-d]lopyrimidine]
IC50: ≤ 50 nM

7-(8-Fluoronaphthyl)-6-fluoro-4-(((S)-4-(2-acryloyl)-3-carbonitrileethylpiperazine)-1-yl)-2-((((S)-1-(methyl-d3)pyrrolidin-2-yl)methoxy)pyridine[2,3-d]lopyrimidine [Compound 9]
IC50: ≤ 50 nM

7-(8-Methylnaphthyl)-8-fluoro-4-(((R)-4-acryloyl-2-methylpiperazine)-1-yl)-2-(((S)-2,2-difluorotetrahydro-1H-pyrinyl-7a(5H)-yl)methoxy)quinazoline [Compound 62]
IC50: ≤ 50 nM

C=C(F)C(=O)N1C2CCC1CN(c1nc(OC[C@@]34CCCN3C[C@H](F)C4)nc3c(F)c(-c4cccc5cccc(F)c45)c(Cl)cc13)C2 [Compound 39, 6-Chloro-7-(8-fluoronaphthyl)-8-fluoro-4-(8-(2-fluoroacryloyl)-3,8-diazabicyclo[3.2.1]octan-3-yl)-2-(((2R,7aS)-2-fluorotetrahydro-1H-pyrincycline-7a(5H)-yl)methoxy)quinazoline]
IC50: ≤ 50 nM

7-(8-Fluoronaphthalene)-4-(((R)-4-Acryloyl-2-methylpiperazine)-1-yl)-24(1-(N,N-dimethylamino)) methylcyclopropan-1-yl)methoxy)pyridine[2,3-d]lopyrimidine [Compound 24]
IC50: ≤ 50 nM

7-(8-Fluoronaphthyl)-8-fluoro-4-(((R)-4-acryloyl-2-methylpiperazine)-1-yl)-2-(((2R,7aS)-2-fluorotetrahydro-1H-pyrincyclo-7a(5H)-yl)methoxy)quinazoline [Compound 69]
IC50: ≤ 50 nM

7-(8-Methylnaphthyl)-6-fluoro-4-(((R)-4-acryloyl-2-methylpiperazine)-1-yl)-1-y1)-2-(((S)-2,2-difluorotetrahydro-1H-pyrincyclo-7a(5H)-yl)methoxy)pyridine[2,3-d]lopyrimidine [Compound 80]
IC50: ≤ 50 nM

7-(8-Methylnaphthalene)-4-(((R)-4-Acryloyl-2-methylpiperazine)-1-yl)-2-(((1-(pyrrolidin-1-yl)methylcyclopropan-1-yl)methoxy)pyridine[2,3-d]lopyrimidine [Compound 17]
IC50: ≤ 50 nM

7-(8-Fluoronaphthalene)-4-(((R)-4-Acryloyl-3-carbonitrileethylpiperazine)-1-yl)-24(1-(N,N-dimethylamineyl)methylcyclopropan-1-yl)methoxy)pyridine[2,3-d]lopyrimidine [Compound 21]
IC50: ≤ 50 nM

7-(8-fluoronaphthyl)-8-fluoro-4-(((R)-4-acryloyl-2-methylpiperazine)-1-yl)-2-(((S)-2,2-difluorotetrahydro-1H-pyrincyclo-7a(5H)-yl)methoxy)quinazoline [Compound 59]
IC50: ≤ 50 nM

C=CC(=O)N1CCN(c2nc(OC[C@@]34CCCN3C[C@H](F)C4)nc3nc(-c4cc(O)cc5cccc(F)c45)c(F)cc23)C[C@@H]1CC#N [Compound 35, 7-(3-Hydroxy-8-fluoronaphthyl)-6-fluoro-4-(((S)-4-acryloyl-3-carbonitrileethylpiperazine)-1-yl)-2-(((2R,7aS)-2-fluorotetrahydro-1H-pyrinyl-7a(5H)-yl)methoxy)pyridine[2,3-d]lopyrimidine]
IC50: ≤ 50 nM

7-(8-Fluoronaphthyl)-8-fluoro-4-(((S)-4-acryloyl-3-carbonitrileethylpiperazine)-1-yl)-2-(((S)-2,2-Difluorotetrahydro-1H-pyrinyl-7a(5H)-yl)methoxy)quinazoline [Compound 63]
IC50: ≤ 50 nM

7-(3-Hydroxy-8-fluoronaphthyl)-8-fluoro-4-(((S)-4-(2-fluoroacryloyl)-3-carbonitrileethylpiperazine)-2-((((S)-2,2-Difluorotetrahydro-1H-pyrincycline-7a(5H)-yl)methoxy)quinazoline [Compound 65]
IC50: ≤ 50 nM

C=C(F)C(=O)N1CCN(c2nc(OCC34CCCN3CCC4)nc3c(F)c(-c4cc(O)cc5cccc(F)c45)ccc23)C[C@@H]1CC#N [Compound 57]
IC50: ≤ 50 nM

7-(8-Chloronaphthalene)-4-(((R)-4-Acryloyl-3-carbonitrileethylpiperazine)-1-yl)-24(1-(N,N-dimethylaminyl)methylcyclopropan-1-yl)methoxy)pyridine[2,3-d]lopyrimidine [Compound 20]
IC50: ≤ 50 nM

C=CC(=O)N1CCN(c2nc(OC[C@@H]3CCCN3C)nc3nc(-c4cccc5cccc(F)c45)c(F)cc23)[C@@H](C)C1 [Compound 10]
IC50: ≤ 50 nM

7-(8-Fluoronaphthyl)-6-fluoro-4-(((R)-4-acryloyl-2-methylpiperazine)-1-yl)-2-(((S)-2,2-difluorotetrahydro-1H-pyrincycl-7a(5H)-yl)methoxy)pyridine[2,3-d]lopyrimidine [Compound 79]
IC50: ≤ 50 nM

C=C(F)C(=O)N1CCN(c2nc(OC[C@@]34CCCN3CC(F)(F)C4)nc3nc(-c4cccc5cccc(F)c45)c(F)cc23)C[C@@H]1CC#N [Compound 83]
IC50: ≤ 50 nM

C=C(F)C(=O)N1C2CCC1CN(c1nc(OC[C@@]34CCCN3C[C@H](F)C4)nc3c(F)c(-c4cc(O)cc5cccc(F)c45)c(Cl)cc13)C2 [Compound 42, 6-Chloro-74(3-hydroxy-8-fluoronaphthyl)-8-fluoro-4-(8-(2-fluoroacryloyl)-3,8-diazabicyclo[3.2.1]octane-3-yl)-2-(((2R,7aS)-2-fluorotetrahydro-1H-pyrincycline-7a(5H)-yl)methoxy)quinazoline]
IC50: ≤ 50 nM

C=C(F)C(=O)N1CCN(c2nc(OC[C@@]34CCCN3C[C@H](F)C4)nc3nc(-c4cc(O)cc5cccc(F)c45)c(F)cc23)[C@H](C)C1 [Compound 34, 7-(3-Hydroxy-8-fluoronaphthyl)-6-fluoro-4-(((R)-4-(2-fluoroacryloyl)-2-methylpiperazine)-1-yl)-2-(((2R,7aS)-2-fluorotetrahydro-1H-pyrincyclin-7a(5H)-yl)methoxy)pyridine[2,3-d]lopyrimidine]
IC50: ≤ 50 nM

C=CC(=O)N1CCN(c2nc(OCC34CCCN3CCC4)nc3c(F)c(-c4cccc5cccc(F)c45)ccc23)C[C@@H]1CC#N [Compound 54, 7-(8-fluoronaphthyl)-8-fluoro-4-(((S)-4-(acryloyl)-3-carbonitrileethylpiperazine)-1-yl)-2-((tetrahydro-1H-pyrin-7a(5H)-yl)methoxy)quinazoline]
IC50: ≤ 50 nM

6-Chloro-7-(3-hydroxy-8-fluoronaphthyl)-8-fluoro-4-(((S)-4-(2-fluoroacryloyl)-3-carbonitrileethylpiperazine)-1-yl)-2-(((S)-2,2-difluorotetrahydro-1H-pyrincycline-7a(5H)-yl)methoxy)quinazoline [Compound 77]
IC50: ≤ 50 nM

C=CC(=O)N1CCN(c2nc(OC[C@@H]3CCCN3C)nc3nc(-c4c(O)cccc4F)c(F)cc23)[C@@H](C)C1 [Compound 12, 7-(2-Fluoro-6-hydroxyphenyl)-6-fluoro-4-(((S)-4-(2-acryloyl)-2-methylpiperazine)-1-yl)-2-(((S)-1-(methyl-d3)pyrrolidin-2-yl)methoxy)pyridine[2,3-d]lopyrimidine]
IC50: 500 to 2000 nM

6-Chloro-7-(3-hydroxy-8-fluoronaphthyl)-8-fluoro-4-(((S)-4-acryloyl-3-carbonitrileethylpiperazine)-1-yl)-2-(((S)-2,2-difluorotetrahydro-1H-pyrinyl-7a(5H)-yl)methoxy)quinazoline [Compound 76]
IC50: ≤ 50 nM

7-(8-Methylnaphthyl)-8-fluoro-4-(((S)-4-(2-fluoroacryloyl)-3-carbonitrileethylpiperazine)-1-yl)-2-(((S)-2,2-difluorotetrahydro-1H-pyrincyclo-7a(5H)-yl)methoxy)quinazoline [Compound 72]
IC50: ≤ 50 nM
